Consider 1 compound from article PMC8607231, “Generation of KS-133 as a Novel Bicyclic Peptide with a Potent and Selective VIPR2 Antagonist Activity that Counteracts Cognitive Decline in a Mouse Model of Psychiatric Disorders” (Frontiers in Pharmacology, 2021).

Where a SMILES comes first, the peptide text is derived from it. Bridges are numbered along the chain shown (N, C = ends).

Assay [1] deals with VIPR2 activation-induced phosphorylation of CREB. As to the kind of experiment: Western blot of pCREB in prefrontal cortex of adult mice after i.n. injection. The class given is in vivo. Particulars: mice at 8 weeks, KS-133 20 nmol/mouse i.n. with BAY 55-9837 20 µg/mouse, 45 min after injection. On the procedure: For western blot analysis, ICR neonatal mice at P12 (7–10 g body weight) were subcutaneously (s.c.) injected with KS-133 (1 nmol/g) and Ro 25-1553 (0.4 nmol/g, Peptide Institute, Inc. Osaka, Japan), a selective VIPR2 agonist ([Gourlet et al., 1997]; [Harmar et al., 2012]), and adult C57BL/6J mice at 8 weeks of age (20–30 g body weight) were intranasally (i.n.) injected with KS-133 (20 nmol/mouse) and BAY 55-9837 (20 µg/mouse, Tocris Bioscience, Bristol, United Kingdom), another selective VIPR2 agonist ([Tsutsumi et al., 2002]; [Tian et al., 2019]). The dosages of these drugs were determined in a preliminary experiment using the change in phosphorylation of cAMP-response element-binding protein (CREB) as an index. Ro 25-1553 was dissolved in phosphate-buffered saline (PBS) and BAY 55-9837 was dissolved in distilled water. KS-133 was dissolved in saline with 1% dimethyl sulfoxide (DMSO; #13445-74, Nacalai Tesque, Inc., Kyoto, Japan) for s.c. injection or saline with 5% DMSO and 5 mg/ml poly-L-arginine (#P7762, Sigma-Aldrich, St. Louis, MO, United States) for i.n. injection. […]
FIGURE 4 Effects of subcutaneous (A) and intranasal (B) administration of KS-133 on VIPR2 activation-induced phosphorylation of CREB in the prefrontal cortex of mice. Phospho-CREB (pCREB), total CREB, and β-actin levels were analyzed by western blotting. […]

Assay [2] deals with mouse model of psychiatric disorders on the basis of early postnatal activation of VIPR2. As to the kind of experiment: Novel object recognition test in mouse model of early postnatal activation of VIPR2. Particulars: KS-133 1 nmol/g s.c. simultaneously with Ro 25-1553 0.07 nmol/g, P1-14. The class given is in vivo. The procedure:
For behavioral experiments, all litters were randomly divided into Ro 25-1553- and PBS-treated groups. From P1 to P14, mice were injected s.c. once daily with Ro 25-1553 at a dose of 0.07 nmol/g ([Ago et al., 2015]). Mice treated with PBS from P1 to P14 were used as the control. KS-133 or the vehicle was simultaneously injected with Ro 25-1553 or PBS. Animals were weaned at P21 and divided by gender at P28. We used male mice exclusively to minimize any potential variability due to sex-specific effects on behavioral performance. All groups were derived from at least four different litters to preclude possible differences in individual maternal behaviors as a mitigating factor in any subsequent long-lasting changes induced in the offspring. […]
The novel object recognition test was carried out in accordance with previous reports ([Takuma et al., 2014]; [Hara et al., 2016]). […] The exploration time for each object in the retention session was measured with a stopwatch. […]
FIGURE 5 Effects of early postnatal treatment with Ro 25-1553 and KS-133 on recognition memory in the novel object recognition test. […] (B) Discrimination index (%) was calculated as the difference between novel and familiar object exploration times divided by the total time spent exploring the two objects. Results are expressed as the mean ± S.E.M. of 15–20 mice per group. **p < 0.01.

With `CC[C@H](C)[C@H](NC(=O)[C@H](CC(C)C)NC(=O)[C@@H]1CC(=O)NCCCC[C@@H]2NC(=O)[C@@H]3CCCN3C(=O)[C@H](CC(C)C)NC(=O)[C@H](Cc3ccc(O)cc3)NC(=O)[C@@H]3CCCN3C(=O)[C@@H]3CCCN3C(=O)[C@@H](NC(C)=O)CSSC[C@H](NC(=O)[C@H](CC(C)C)NC(=O)[C@H](Cc3ccc(O)cc3)NC2=O)C(=O)N1)C(N)=O` [KS-133, Ac-c[Cys-Pro-Pro-Tyr-Leu-Pro-c(Lys-Tyr-Leu-Cys]-Asp)-Leu-Ile-NH2] (Ac-CPPYLPKYLCDLI-NH2; disulfide 1-10; lactam 7-11), in assay [1], the “Effect on BAY 55-9837-induced increase in phosphorylated CREB” value is recorded as “blocked”. Also, the “Effect on Ro 25-1553-induced recognition memory deficit, novel object recognition test” value in assay [2] is “attenuated the decreases in the difference of time spent exploring each object and cognitive dysfunction”.
